This experiment addresses human Edg-2 receptor (LPA1 receptor) (Homo sapiens, UniProt Q92633). Put plainly: Edg-2 receptor inhibition by FLIPR calcium fluorescence measurement (LPA-mediated calcium liberation). The experiment is classed as cell-based. The note with it: CHO cells stably overexpressing human Edg-2 receptor; LPA 18:1 100 nM; fluo-4 fluorescence; triplicate; read-out: Inhibitory concentrations IC50 for inhibition of the Edg-2 receptor. The method in brief:
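CHO cells stably overexpressing human Edg-2 were fluo-4 loaded and pre-incubated ~5 min with compound (≤0.3% DMSO) in HBSS/HEPES/probenecid, pH 7.5. Then LPA 18:1 at 100 nM final was added. Peak calcium fluorescence over ~3 min, baseline-corrected versus DMSO, gave % inhibition in triplicate and IC50.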

Sequence of human Edg-2 receptor (LPA1 receptor) (Q92633 whole entry): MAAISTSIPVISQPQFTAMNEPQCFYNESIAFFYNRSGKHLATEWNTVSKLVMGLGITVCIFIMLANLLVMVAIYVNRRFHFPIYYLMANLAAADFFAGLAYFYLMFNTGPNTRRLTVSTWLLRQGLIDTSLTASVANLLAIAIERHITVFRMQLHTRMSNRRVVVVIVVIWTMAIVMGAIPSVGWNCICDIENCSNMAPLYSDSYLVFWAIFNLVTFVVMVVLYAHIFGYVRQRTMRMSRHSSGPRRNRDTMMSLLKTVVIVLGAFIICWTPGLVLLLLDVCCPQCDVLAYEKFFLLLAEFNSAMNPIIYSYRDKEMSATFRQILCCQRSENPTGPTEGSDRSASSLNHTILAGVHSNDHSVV

Consider `COc1ccc(C(=O)NC2(C(=O)O)Cc3ccccc3C2)cc1-c1cccc(OC(F)(F)F)c1` [Example 302], for which the IC50 was below 0.1 µM.

As for `COc1cc(Br)c(C(=O)NC2(C(=O)O)Cc3ccccc3C2)cc1OCCc1cccc(Cl)c1` [Example 104, 2-{2-Bromo-5-[2-(3-chloro-phenyl)-ethoxy]-4-methoxy-benzoylamino}-indane-2-carboxylic acid], the IC50 was in the range of 1 to 30 µM.

Consider `COc1ncc(C(=O)NC2(C(=O)O)Cc3ccccc3C2)cc1-c1cccc(C#N)c1` [Example 236], for which the IC50 was below 0.1 µM.

With `CC(=O)c1ccc(C(=O)NC2(C(=O)O)Cc3ccccc3C2)cc1OCCc1cccc(C)c1` [Example 8, 2-[4-Acetyl-3-(2-m-tolyl-ethoxy)-benzoylamino]-indane-2-carboxylic acid], the IC50 was in the range of 0.1 to 1 µM.

On to `COc1ccc(C(=O)NC2(C(=O)O)Cc3ccccc3C2)cc1OCc1cc(-c2csc(C)n2)on1` [Example 74], for which the IC50 fell in the range of 1 to 30 µM.

As to `COc1ccc(C(=O)NC2(C(=O)O)Cc3ccccc3C2)cc1OCCC1CCCC(C)C1` (stereo not drawn) [Example 278, 2-{4-Methoxy-3-[2-(3-methyl-cyclohexyl)-ethoxy]-benzoylamino}-indane-2-carboxylic acid], the IC50 is 1 to 30 µM.

On to `CSCCOc1ccc(C(=O)NC2(C(=O)O)Cc3ccccc3C2)cc1OCCc1cccc(C)c1` [Example 267], for which the IC50 is below 0.1 µM.

As to `COc1ccc(C(=O)NC2(C(=O)O)Cc3ccccc3C2)cc1OCCc1ccccc1F` [Example 139], the IC50 lay within 0.1 to 1 µM.

As to `COc1ccc(C(=O)NC2(C(=O)O)Cc3ccccc3C2)cc1-c1cc(F)cc(Cl)c1` [Example 342], the IC50 is below 0.1 µM.

Take `Cc1cccc(CCOc2cc(C(=O)NC3(C(=O)O)Cc4ccccc4C3)ccc2Br)c1` [Example 2, 2-[4-Bromo-3-(2-m-tolyl-ethoxy)-benzoylamino]-indane-2-carboxylic acid]: the IC50 was below 0.1 µM.

With `COc1ccc(C(=O)NC2(C(=O)O)Cc3ccccc3C2)cc1C(O)c1ccccc1C` (stereo not drawn) [Example 241, 2-[3-(Hydroxy-o-tolyl-methyl)-4-methoxy-benzoylamino]-indane-2-carboxylic acid], the IC50 was 1 to 30 µM.

Regarding `COc1ccc(C(=O)NC2(C(=O)O)Cc3ccccc3C2)cc1OCCc1cccc(C(N)=O)c1` [Example 95, 2-{3-[2-(3-Carbamoyl-phenyl)-ethoxy]-4-methoxy-benzoylamino}-indane-2-carboxylic acid], the IC50 was in the range of 1 to 30 µM.

On to `CCC1(COc2cc(C(=O)NC3(C(=O)O)Cc4ccccc4C3)ccc2OC)COCOC1` [Example 56], for which the IC50 lay within 1 to 30 µM.

Turning to `Cc1cccc(CCOc2cc(C(=O)NC3(C(=O)O)Cc4ccccc4C3)ccc2OCCC(C)(C)C)c1` [Example 261], the IC50 lay within 0.1 to 1 µM.

As to `COc1ccc(C(=O)NC2(C(=O)O)Cc3cc(C)c(C)cc3C2)cc1OCCc1cccc(C)c1` [Example 158, 2-[4-Methoxy-3-(2-m-tolyl-ethoxy)-benzoylamino]-5,6-dimethyl-indane-2-carboxylic acid], the IC50 was 0.1 to 1 µM.

Regarding `COCCOc1ccc(C(=O)NC2(C(=O)O)Cc3ccccc3C2)cc1OCCc1cccc(C)c1` [Example 256], the IC50 was below 0.1 µM.

Take `COc1ccc(F)cc1-c1cc(C(=O)NC2(C(=O)O)Cc3ccccc3C2)ccc1OC` [Example 304]: the IC50 is below 0.1 µM.

Regarding `COc1ccc(C(=O)NC2(C(=O)O)Cc3ccccc3C2)cc1OCCC1CCCN1C` (stereo not drawn) [Example 64], the IC50 fell in the range of 1 to 30 µM.

As for `Cc1cccc(CCOc2cc(C(=O)NC3(C(=O)O)Cc4ccccc4C3)ccc2N(C)C)c1` [Example 165, 2-[4-Dimethylamino-3-(2-m-tolyl-ethoxy)-benzoylamino]-indane-2-carboxylic acid], the IC50 fell in the range of 0.1 to 1 µM.

For `COc1ccc(C(=O)NC2(C(=O)O)Cc3ccccc3C2)cc1OCCC1CCCC1` [Example 150], the IC50 was 1 to 30 µM.

Consider `COc1ccc(C(=O)NC2(C(=O)O)Cc3ccc(C#N)cc3C2)cc1OCCc1cccc(C)c1` (stereo not drawn) [Example 218, 5-Cyano-2-[4-methoxy-3-(2-m-tolyl-ethoxy)-benzoylamino]-indane-2-carboxylic acid], for which the IC50 was below 0.1 µM.

`COc1ccc(C(=O)NC2(C(=O)O)Cc3ccccc3C2)cc1C#Cc1ccc(C(F)(F)F)cc1` [Example 194, 2-[4-Methoxy-3-(4-trifluoromethyl-phenylethynyl)-benzoylamino]-indane-2-carboxylic acid]: the IC50 fell in the range of 1 to 30 µM.

With `Cc1cccc(CCOc2cc(C(=O)NC3(C(=O)O)Cc4ccccc4C3)ccc2OCC2CCCCC2)c1` [Example 257], the IC50 was below 0.1 µM.

As for `COc1ccc(C(=O)NC2(C(=O)O)Cc3ccccc3C2)cc1OCc1snnc1-c1ccccc1` [Example 89], the IC50 was in the range of 1 to 30 µM.

For the molecule `Cc1cccc(CCOc2cc(C(=O)NC3(C(=O)O)Cc4ccccc4C3)ccc2OC(C)C)c1` [Example 255, 2-[4-Isopropoxy-3-(2-m-tolyl-ethoxy)-benzoylamino]-indane-2-carboxylic acid], the IC50 is below 0.1 µM.

For the molecule `COc1ccc(C(=O)NC2(C(=O)O)Cc3ccccc3C2)cc1-c1ccccc1Cl` [Example 281], the IC50 is 1 to 30 µM.

In the case of `COc1ccc(C(=O)NC2(C(=O)O)Cc3ccccc3C2)cc1OCCc1ccccc1Cl` [Example 149], the IC50 is below 0.1 µM.

In the case of `COc1ccc(C(=O)NC2(C(=O)O)Cc3ccccc3C2)cc1OCCc1cccc(F)c1` [Example 131], the IC50 was below 0.1 µM.

Consider `Cc1ccc(C(=O)NC2(C(=O)O)Cc3ccccc3C2)cc1OCCc1cccc(Cl)c1` [Example 176, 2-{3-[2-(3-Chloro-phenyl)-ethoxy]-4-methyl-benzoylamino}-indane-2-carboxylic acid], for which the IC50 was below 0.1 µM.

Regarding `COc1ccc(C(=O)NC2(C(=O)O)Cc3ccccc3C2)cc1OCCc1cccc2ccccc12` [Example 44], the IC50 was 1 to 30 µM.

For `COc1ccc(C(=O)NC2(C(=O)O)Cc3ccccc3C2)cc1OCC1CCC(C)CC1` (stereo not drawn) [Example 57], the IC50 was in the range of 1 to 30 µM.

In the case of `COc1ccc(C(=O)NC2(C(=O)O)Cc3ccccc3C2)cc1OCC1CCC(C(=O)O)C1` (stereo not drawn) [Example 78], the IC50 was 1 to 30 µM.

With `COc1ccc(C(=O)NC2(C(=O)O)Cc3ccccc3C2)cc1OCCc1ccc(F)cc1` [Example 136], the IC50 lay within 1 to 30 µM.

As for `CCn1cc(COc2cc(C(=O)NC3(C(=O)O)Cc4ccccc4C3)ccc2OC)cn1` [Example 71], the IC50 was in the range of 1 to 30 µM.

For `COc1ccc(C(=O)NC2(C(=O)O)Cc3ccccc3C2)cc1OCc1ncc(C)c(NC(C)=O)c1C` [Example 77], the IC50 fell in the range of 1 to 30 µM.

`C=CCOc1ccc(C(=O)NC2(C(=O)O)Cc3ccccc3C2)cc1OCCc1cccc(C)c1` [Example 269]: the IC50 is below 0.1 µM.

For the molecule `Cc1cccc(CCOc2cc(C(=O)NC3(C(=O)O)Cc4ccccc4C3)ccc2[S+](C)[O-])c1` (stereo not drawn) [Example 5, 2-[4-Methanesulfinyl-3-(2-m-tolyl-ethoxy)-benzoylamino]-indane-2-carboxylic acid], the IC50 is 1 to 30 µM.

Consider `CCS(=O)(=O)c1cccc(-c2cc(C(=O)NC3(C(=O)O)Cc4ccccc4C3)cnc2OC)c1` [Example 237, 2-{[5-(3-Ethanesulfonyl-phenyl)-6-methoxy-pyridine-3-carbonyl]-amino}-indane-2-carboxylic acid], for which the IC50 lay within 0.1 to 1 µM.

Turning to `COc1cccc(CCOc2cc(C(=O)NC3(C(=O)O)Cc4ccccc4C3)ccc2OC)c1` [Example 133], the IC50 lay within 0.1 to 1 µM.
